Data reported in ChEMBL document CHEMBL1201862, “PubChem BioAssay data set” (2004).
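Following 48 hours of exposure in 96-well plates, responses at five concentrations were used to interpolate endpoints linearly. Abbreviation: GI50, concentration required for 50% inhibition of growth.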 Activity calls are given as the source filed them. Cut-off read from the data, not from the text of the source: active = GI50 up to about 1.1 µM and inactive = higher.

How the values were obtained:
Experiment in all cases: DTP human tumour cell line panel, 48 h
RXF 393 = tested on: RXF 393
PC-3 = tested on: PC-3
NCI-H23 = tested on: NCI-H23
TK-10 = tested on: TK-10
KM12 = tested on: KM12
SNB-19 = tested on: SNB-19
K562 = tested on: K562
U-251 = tested on: U-251
NCI-H226 = tested on: NCI-H226
HT-29 = tested on: HT-29
MOLT-4 = tested on: MOLT-4
UACC-62 = tested on: UACC-62
HL-60 = tested on: HL-60
T47D = tested on: T47D
SK-MEL-28 = tested on: SK-MEL-28
786-0 = tested on: 786-0
SW-620 = tested on: SW-620
HOP-92 = tested on: HOP-92
NCI/ADR-RES = tested on: NCI/ADR-RES

SMILES | GI50 (RXF 393) | GI50 (PC-3) | GI50 (NCI-H23) | GI50 (TK-10) | GI50 (KM12) | GI50 (SNB-19) | GI50 (K562) | GI50 (U-251) | GI50 (NCI-H226) | GI50 (HT-29) | GI50 (MOLT-4) | GI50 (UACC-62) | GI50 (HL-60) | GI50 (T47D) | GI50 (SK-MEL-28) | GI50 (786-0) | GI50 (SW-620) | GI50 (HOP-92) | GI50 (NCI/ADR-RES)
Cc1nc2ccccc2c(=O)n1NC(=O)Cc1ccccc1 | > 100 µM (inactive) | > 100 µM (inactive) | > 100 µM (inactive) | > 100 µM (inactive) | > 100 µM (inactive) | > 100 µM (inactive) | > 100 µM (inactive) | > 100 µM (inactive) | > 100 µM (inactive) | > 100 µM (inactive) | > 100 µM (inactive) | 43.5 µM (inactive) | > 100 µM (inactive) | > 100 µM (inactive) | > 100 µM (inactive) | > 100 µM (inactive) | > 100 µM (inactive) | > 100 µM (inactive) | 
Nc1nc(=O)c(/N=N/c2ccccc2)c(C(=O)O)[nH]1 | > 100 µM (inactive) | > 100 µM (inactive) | > 100 µM (inactive) | > 100 µM (inactive) | > 100 µM (inactive) | > 100 µM (inactive) | 54.6 µM (inactive) | 56.9 µM (inactive) | > 100 µM (inactive) | 45.5 µM (inactive) | 46.3 µM (inactive) | > 100 µM (inactive) | 37.9 µM (inactive) |  | > 100 µM (inactive) | 71.6 µM (inactive) | > 100 µM (inactive) | > 100 µM (inactive) | > 100 µM (inactive)
OC(CC(O)(C(F)(F)F)C(F)(F)F)C(O)c1ccco1 (configuration not stated) | > 10 µM (inactive) | > 10 µM (inactive) | > 10 µM (inactive) | > 10 µM (inactive) | > 10 µM (inactive) | > 10 µM (inactive) | > 10 µM (inactive) | > 10 µM (inactive) | > 10 µM (inactive) | > 10 µM (inactive) | > 10 µM (inactive) | > 10 µM (inactive) | > 10 µM (inactive) | > 10 µM (inactive) | > 10 µM (inactive) | > 10 µM (inactive) | > 10 µM (inactive) |  | > 10 µM (inactive)
Cc1cc(N(CCCCl)CCCCl)ccc1/C=N/c1cccc(Cl)c1 | 11.5 µM (inactive) | 12 µM (inactive) | < 0.01 µM (active) | 10.6 µM (inactive) | 13.5 µM (inactive) | 15.3 µM (inactive) | 7.26 µM (inactive) | 15.7 µM (inactive) | < 0.01 µM (active) | 14.6 µM (inactive) | 4.41 µM (inactive) | 0.74 µM (active) | 13 µM (inactive) | 0.45 µM (active) | 17.4 µM (inactive) | 14.2 µM (inactive) | 12.3 µM (inactive) |  | 14.2 µM (inactive)
O=C(N/N=C(COc1ccccc1)\N=C\c1cccnc1)c1ccncc1 | > 100 µM (inactive) | > 100 µM (inactive) | > 100 µM (inactive) | > 100 µM (inactive) | > 100 µM (inactive) | > 100 µM (inactive) | > 100 µM (inactive) | > 100 µM (inactive) | > 100 µM (inactive) | > 100 µM (inactive) | > 100 µM (inactive) | > 100 µM (inactive) | > 100 µM (inactive) | > 100 µM (inactive) | > 100 µM (inactive) | > 100 µM (inactive) | > 100 µM (inactive) |  | > 100 µM (inactive)
CN1CC(C(=O)C2C(=O)c3ccccc3C2=O)C(=O)C(=O)C(C(=O)C2C(=O)c3ccccc3C2=O)C1 (configuration not stated) |  |  | > 100 µM (inactive) | > 100 µM (inactive) | > 100 µM (inactive) | > 100 µM (inactive) | > 100 µM (inactive) | > 100 µM (inactive) |  | > 100 µM (inactive) | > 100 µM (inactive) | > 100 µM (inactive) | > 100 µM (inactive) |  | > 100 µM (inactive) | > 100 µM (inactive) | > 100 µM (inactive) | 85.1 µM (inactive) | 
c1ccc(-c2cn3nc(N4CCOCC4)sc3n2)cc1 | 83.6 µM (inactive) | > 100 µM (inactive) | > 100 µM (inactive) | > 100 µM (inactive) | > 100 µM (inactive) | > 100 µM (inactive) | > 100 µM (inactive) | 48.6 µM (inactive) | > 100 µM (inactive) | > 100 µM (inactive) | > 100 µM (inactive) | > 100 µM (inactive) | > 100 µM (inactive) | 56.8 µM (inactive) | > 100 µM (inactive) | 37.4 µM (inactive) | > 100 µM (inactive) |  | > 100 µM (inactive)
Cc1cc(O)c(C(c2ccncc2)c2c(O)cc(C)[nH]c2=O)c(=O)[nH]1 | > 100 µM (inactive) | > 100 µM (inactive) | > 100 µM (inactive) | > 100 µM (inactive) | > 100 µM (inactive) | > 100 µM (inactive) | > 100 µM (inactive) | > 100 µM (inactive) |  | > 100 µM (inactive) | > 100 µM (inactive) | > 100 µM (inactive) | > 100 µM (inactive) | > 100 µM (inactive) | > 100 µM (inactive) | > 100 µM (inactive) |  |  | > 100 µM (inactive)
C=CCc1cc(OC)c(O)c(C(=O)/C=C/c2ccc(OC)c(OC)c2)c1 |  |  | 15 µM (inactive) | 25.1 µM (inactive) | 19.5 µM (inactive) | 15.6 µM (inactive) | 10.7 µM (inactive) | 17.4 µM (inactive) |  | 16.4 µM (inactive) | 1.2 µM (inactive) | 23.8 µM (inactive) | 11.6 µM (inactive) |  | 16.9 µM (inactive) | 18.2 µM (inactive) | 24.4 µM (inactive) |  | 
[N-]=[N+]=NC1C(O)C(CO)OC1n1ccc(N)nc1=O (configuration not stated) | > 206 µM (inactive) | 182 µM (inactive) | 29.9 µM (inactive) | 175 µM (inactive) | 187 µM (inactive) | 18.2 µM (inactive) | 294 µM (inactive) | 195 µM (inactive) | > 625 µM (inactive) | 204 µM (inactive) | 2.3 µM (inactive) | 147 µM (inactive) | 3.83 µM (inactive) |  | 416 µM (inactive) | 118 µM (inactive) | 159 µM (inactive) | 403 µM (inactive) | 200 µM (inactive)
CCCCCCCCCCCCCCCC(=O)NC1CCc2cc(O)c(O)c(O)c2-c2ccc(SC)c(=O)cc21 (configuration not stated) | 1.46 µM (inactive) |  | 1.37 µM (inactive) | 15.8 µM (inactive) | 6.22 µM (inactive) | 9.29 µM (inactive) | 1.89 µM (inactive) | 1.29 µM (inactive) | 10.6 µM (inactive) | 13.1 µM (inactive) | 9.44 µM (inactive) | 2.9 µM (inactive) | 3.35 µM (inactive) |  | 6.67 µM (inactive) | 16.6 µM (inactive) | 4.84 µM (inactive) | 2.51 µM (inactive) | 
CC(=O)OCc1cc2ccccc2nc1C(Br)(Br)Br | 15.4 µM (inactive) |  | 13.6 µM (inactive) | 16.1 µM (inactive) | 13 µM (inactive) | 20.1 µM (inactive) | 18 µM (inactive) | 14 µM (inactive) | 21.5 µM (inactive) | 21.6 µM (inactive) | 9.02 µM (inactive) | 15.5 µM (inactive) | 14.9 µM (inactive) | 27.8 µM (inactive) | 17.9 µM (inactive) | 19.4 µM (inactive) | 18.7 µM (inactive) | 11.7 µM (inactive) | 17.1 µM (inactive)
O=C(CC(C(=O)c1cccs1)c1cccs1)c1ccccc1Cl (configuration not stated) |  | 72.9 µM (inactive) | 33 µM (inactive) | > 100 µM (inactive) | 93.1 µM (inactive) | > 100 µM (inactive) | 98.4 µM (inactive) | > 100 µM (inactive) | > 100 µM (inactive) | 76.6 µM (inactive) | 46.1 µM (inactive) | > 100 µM (inactive) | 76.4 µM (inactive) | 52 µM (inactive) | 81.7 µM (inactive) | > 100 µM (inactive) | > 100 µM (inactive) |  | 33.5 µM (inactive)
C[N+]1(c2ccccc2)C=C(c2ccccc2)SC1=S (configuration not stated) | 1.87 µM (inactive) | > 100 µM (inactive) | > 100 µM (inactive) | > 100 µM (inactive) | > 100 µM (inactive) | > 100 µM (inactive) | 42.7 µM (inactive) | > 100 µM (inactive) | > 100 µM (inactive) | 7.43 µM (inactive) |  | > 100 µM (inactive) | > 100 µM (inactive) | 1.67 µM (inactive) | 7.33 µM (inactive) | > 100 µM (inactive) | > 100 µM (inactive) |  | > 100 µM (inactive)
O=C(CCc1ccc(O)cc1)c1c(O)cc(O)cc1OC1OC(CO)C(O)C(O)C1O (configuration not stated) |  | > 100 µM (inactive) | > 100 µM (inactive) | > 100 µM (inactive) | > 100 µM (inactive) |  | > 100 µM (inactive) |  |  | > 100 µM (inactive) |  | > 100 µM (inactive) |  | > 100 µM (inactive) | > 100 µM (inactive) | > 100 µM (inactive) | > 100 µM (inactive) | > 100 µM (inactive) | > 100 µM (inactive)
O=C1CS(=O)(=O)C(c2cccc(Oc3ccccc3)c2)N1c1cccc(Cl)c1Cl (configuration not stated) | 25.1 µM (inactive) | 26.4 µM (inactive) |  | 25.3 µM (inactive) | 26.7 µM (inactive) | 39.5 µM (inactive) | 16.6 µM (inactive) | 20 µM (inactive) | 35.7 µM (inactive) | 25.2 µM (inactive) | 20.2 µM (inactive) | 13.5 µM (inactive) | 31 µM (inactive) | 26.2 µM (inactive) | 51.4 µM (inactive) | 15 µM (inactive) | 28.8 µM (inactive) | 7.26 µM (inactive) | 
